The source of these data is patent US6727265B2, “Phenoxyethyl-thiourea-pyridine compounds and their use for treatment of HIV-infections” (Parker Hughes Institute, priority 2000, dated 2004).

Where two headings read alike, the source gives them in different places. Some results are limits rather than exact numbers.

For series [1], the system named is HIV-1 strain HTLVIIIB
As to the kind of experiment: anti-HIV activity: inhibition of replication of HIV-1 strain HTLVIIIB in PBMC. The series is classed as cell-based. Conditions: for inhibition at 1 µM: at concentrations ≧1 μM; for IC50: read-out: IC50 [HTLVHIB].

For series [2], the target named is purified recombinant HIV RT (Human immunodeficiency virus type 1 group M subtype B, UniProt P03366). As to the kind of experiment: biochemical.
Series [3] is described as follows: cytotoxicity (CC50). The format is cell-based. Conditions: CC50 values.
[4] abbreviates: Human immunodeficiency virus 1, PBMC.
Where [5] appears, read: Human immunodeficiency virus 1, peripheral blood mononuclear cells (PBMC) from healthy volunteer donors.

On to `S=C(NCCOc1ccccc1)Nc1ccccn1` [II, N-[2-(Phenoxy)ethyl]-N′-[2-(pyridyl)]thiourea], for which the inhibition (as a rule, the percentage by which the read-out fell short of the control) at 1 µM in series [1] (setting [4]) is 100%. Also, the IC50 (usually the concentration that inhibits the measured activity by half) in series [1] (setting [5]) is 0.005 µM; in series [2] it was 10.1 µM. In series [3], the CC was 55 µM.
For `S=C(NCCOc1ccccc1)Nc1ccc(Cl)cn1` [III, N -[2-(Phenoxy)ethyl]-N′-[2-(5-chloropyridyl)]thiourea], in that order: 100%, 0.004 µM, 1.5 µM and >100 µM.
With `S=C(NCCOc1ccccc1)Nc1ccc(Br)cn1` [IV, N-[2-(Phenoxy)ethyl]-N′-[2-(5-bromopyridyl)]thiourea], the melting point (in general, the temperature, or range, at which the solid turns liquid) was 162 to 163 °C. Besides, in series [1] (setting [4]), at 1 µM the inhibition was 100%. For the same compound, in series [1] (setting [5]), the IC50 was 0.005 µM. Besides, the IC50 in series [2] is 1.5 µM. The compound further came in with a CC in series [3] of 92 µM.
Turning to `S=C(NCCc1ccc(Cl)cc1)Nc1ccc(Br)cn1` [V, reference compound], the IC50 in series [2] turned out to be 2.5 µM.
For the compound `Oc1ccc(CCNC(=S)Nc2ccc(Br)cn2)cc1` [VII, reference compound], the IC50 was 3.07 µM in series [1] (setting [4]) and 87.7 µM in series [2]. Moreover, in series [3], the CC was >100 µM.
